Six compounds from ChEMBL document CHEMBL1130459, “Conformational preference of the 6-acetyl group in novel anticonvulsant trans 4S-benzamido-benzo[b]pyran-3R-ols” (Bioorg Med Chem Lett, 1997) can be followed below.

SMILES strings stand for the structures.

Test [1] is filed under the species Mus musculus. As to the kind of experiment: Compound was evaluated for its binding affinity at the anticonvulsant binding site by displacement of [3H]- SB 204269 from mouse forebrain membranes. More on the design: species or system Brain, Membrane. For orientation: Displacement assays read how much labelled ligand stays bound in the presence of the test substance.

Test [2] has as its system Mus musculus. As to the kind of experiment: Compound was tested in vivo for anticonvulsant activity in mouse MEST test (maximal electroshock seizure threshold) at a peroral dose of 10 mg/kg. Conditions: route oral. The class given is functional. On the technique in general: The maximal electroshock test induces tonic seizures with an electrical stimulus.
The test system of test [3] is Mus musculus. The test can be described thus: Compound was tested in vivo for anticonvulsant activity in mouse MEST test (maximal electroshock seizure threshold) at a peroral dose of 30 mg/kg. The class given is functional. Conditions: route oral.

As to `CC(=O)c1ccc2c(c1C)[C@H](NC(=O)c1ccc(F)cc1)[C@@H](O)C(C)(C)O2`, the “Log Ki” value in the test listed under Mus musculus [1] is listed as -5.02.

Take `CC(=O)c1ccc2c(c1)[C@H](NC(=O)c1ccc(F)c(Cl)c1)[C@@H](O)C(C)(C)O2`: in the test filed under Mus musculus [1], the “Log Ki” value is listed as -7.91. Besides, in the test with Mus musculus [2], the Activity is 138%.

With `CC(=O)c1cc2c(cc1C)OC(C)(C)[C@H](O)[C@H]2NC(=O)c1ccc(F)cc1`, in the test listed under Mus musculus [1], the “Log Ki” value is -6.15.

`CC1(C)Oc2ccc3c(c2[C@H](NC(=O)c2ccc(F)cc2)[C@H]1O)CCCC3=O`: the “Log Ki” value in the test listed under Mus musculus [1] was under -5.

On to `CC1(C)Oc2cc3c(cc2[C@H](NC(=O)c2ccc(F)c(Cl)c2)[C@H]1O)C(=O)CCC3`, for which the Activity with Mus musculus [3] is recorded as 98%. Further, the “Log Ki” value in the test listed under Mus musculus [1] is recorded as -7.6.

As for `CC(=O)c1ccc2c(c1)[C@H](NC(=O)c1ccc(F)cc1)[C@@H](O)C(C)(C)O2` [CARABERSAT], the “Log Ki” value in the test filed under Mus musculus [1] is -7.32.
